pIC50: −log10 of the molar value.
Target: Isoform Bcl-X(L) of Bcl-2-like protein 1 (Bcl-xL) (Homo sapiens, UniProt Q07817)
Sequence (Q07817 whole entry G70A, canonical isoform): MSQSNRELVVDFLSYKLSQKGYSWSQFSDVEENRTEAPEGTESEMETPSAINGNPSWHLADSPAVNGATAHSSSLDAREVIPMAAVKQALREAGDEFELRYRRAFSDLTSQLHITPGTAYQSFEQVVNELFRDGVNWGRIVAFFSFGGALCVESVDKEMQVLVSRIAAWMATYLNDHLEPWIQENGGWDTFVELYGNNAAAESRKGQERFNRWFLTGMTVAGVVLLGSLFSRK

O=C(NS(=O)(=O)c1cc([N+](=O)[O-])c2cnn(C3CCOCC3)c2c1)c1ccc(N2CCN(CC3=C(c4ccc(Cl)cc4)CC4(CCC4)CC3)CC2)cc1Oc1cnc2[nH]ccc2c1 [US10221174, Compound 64]
pIC50: 8.06

O=C(NS(=O)(=O)c1cc([N+](=O)[O-])c2cnn(CC3CCOCC3)c2c1)c1ccc(N2CCN(CC3=C(c4ccc(Cl)cc4)CC4(CCC4)CC3)CC2)cc1Oc1cnc2[nH]ccc2c1 [US10221174, Compound 62]
pIC50: 8.40

— BindingDB's records for patent US10221174 (University of Michigan, 2019)
